Measured values taken from patent US4426390A, “Novel β-lactam compounds, process for producing thereof, and use thereof as medicines” (Sanraku-Ocean Co., Ltd., priority 1980, dated 1984).
In brackets after ≈: the same amount, converted by molar mass.

Columns and labels:
[1] = Physicochemical properties; settings: pale yellow powder
[2] = tested on: Citrobacter Freundii GN346; experiment: Synergistic effect on MIC, microdilution transfer plate technique; assay type: cell-based
[3] = Stability (half life) in phosphate buffers of various pH; assay type: physicochemical; settings: 28° C.
Procedure: By adding 2% sodium hydroxide or 10% hydrochloric acid, the pH of 0.05 M phosphate buffer is adjusted to 4, 5, 6, 7, 8 and 9, respectively, and distributed into test tubes in an amount of 3 ml. Concentrated solution of antibiotic OA-6129A (0.05 ml) is added to each test tube and allowed to stand in a thermostatic chamber of 28° C. The time course curve of the concentration decrease of antibiotic OA-6129A is drawn by spectrophotometric measurement at 300 nm, from which the half life of the antibiotic at the indicated pH is calculated. As a control, antibiotic PS-5, a carbapenem compound described in the above-cited reference is simultaneously tested.

[4] = tested on: Klebsiella pneumoniae K13; experiment: MIC by agar dilution method; assay type: cell-based; settings: 37° C., 18 hours
Procedure: (§1) The MIC is measured by an agar dilution method based on the standard method of the Japanese Society of Chemotherapy (Japanese Society of Chemotherapy: The Revised Method of Determination of MIC Values, Chemotherapy 22, 1126-1128, […]). Specifically, the antibiotic is serially diluted with a 1/50 M phosphate buffer at a pH of 7.3 to prepare a twofold dilution series. One milliliter of each dilution and 9 ml of an agar medium (Heart Infusion Agar; a product of Difco Laboratories) are mixed and allowed to solidify in a Petri dish having a diameter of 9 cm. One loopful of the stock culture of the test microbe is inoculated in trypto-soy buillon (a product of Eiken Kagaku Co., Ltd.) and incubated at 37° C. for 18 hours. The resulting culture broth is diluted to a concentration of about 10^6 cells/ml with physiological saline and inoculated on the agar plate by means of a microplanter.

[5] = tested on: P. rettgeri P7; experiment: MIC by agar dilution method; assay type: cell-based; settings: Providencia rettgeri; P. rettgeri P7; agar dilution, 37° C., 18 hours; read-out: MIC
Procedure: as §1

[6] = tested on: S. aureus Russell; experiment: MIC by agar dilution method; assay type: cell-based; settings: Staphylococcus aureus; S. aureus Russell; agar dilution, 37° C., 18 hours; read-out: MIC
Procedure: as §1

[7] = tested on: Sarcina lutea S19; experiment: MIC by agar dilution method; assay type: cell-based; settings: Micrococcus luteus, 37° C., 18 hours
Procedure: as §1

[8] = tested on: Citrobacter Freundii GN346; experiment: MIC by agar dilution method; assay type: cell-based; settings: 37° C., 18 hours
Procedure: as §1

[9] = tested on: Ser. marcesceus T55; experiment: MIC by agar dilution method; assay type: cell-based; settings: 37° C., 18 hours
Procedure: as §1

[10] = tested on: Staphylococcus aureus 209P; experiment: MIC by agar dilution method; assay type: cell-based; settings: 37° C., 18 hours
Procedure: as §1

[11] = tested on: Proteus mirabilis P6; experiment: MIC by agar dilution method; assay type: cell-based; settings: Proteus mirabilis P6; agar dilution, 37° C., 18 hours; read-out: MIC
Procedure: as §1

[12] = tested on: S. aureus Smith; experiment: MIC by agar dilution method; assay type: cell-based; settings: Staphylococcus aureus, 37° C., 18 hours
Procedure: as §1

[13] = tested on: Comamonas terrigena B996; experiment: MIC by agar dilution method; assay type: cell-based; settings: 37° C., 18 hours
Procedure: as §1

[14] = tested on: Ps. aeruginosa NCTC10490; experiment: MIC by agar dilution method; assay type: cell-based; settings: Pseudomonas aeruginosa, 37° C., 18 hours
Procedure: as §1

[15] = tested on: Pseudomonas aenginosa IFO3445; experiment: MIC by agar dilution method; assay type: cell-based; settings: 37° C., 18 hours
Procedure: as §1

[16] = tested on: Serratia marcesceus S18; experiment: MIC by agar dilution method; assay type: cell-based; settings: 37° C., 18 hours
Procedure: as §1

[17] = tested on: Ent. sp. E8; experiment: MIC by agar dilution method; assay type: cell-based; settings: Ent. sp. E8; agar dilution, 37° C., 18 hours; read-out: MIC
Procedure: as §1

[18] = tested on: P. vulgaris GN76; experiment: MIC by agar dilution method; assay type: cell-based; settings: Proteus vulgaris, 37° C., 18 hours
Procedure: as §1

[19] = tested on: Alcaligenes Faecolis A1; experiment: MIC by agar dilution method; assay type: cell-based; settings: Alcaligenes Faecolis A1; agar dilution, 37° C., 18 hours; read-out: MIC
Procedure: as §1

[20] = tested on: Escherichia coli K-12; experiment: MIC by agar dilution method; assay type: cell-based; settings: K12; Escherichia coli K-12; agar dilution, 37° C., 18 hours; read-out: MIC
Procedure: as §1

[21] = tested on: Ent. cloacae 45; experiment: MIC by agar dilution method; assay type: cell-based; settings: Enterobacter cloacae, 37° C., 18 hours
Procedure: as §1

[22] = tested on: Providencia sp. P8; experiment: MIC by agar dilution method; assay type: cell-based; settings: Providencia sp. P8; agar dilution, 37° C., 18 hours; read-out: MIC
Procedure: as §1

[23] = tested on: S. epidermidis; experiment: MIC by agar dilution method; assay type: cell-based; settings: Staphylococcus epidermidis, 37° C., 18 hours
Procedure: as §1

[24] = tested on: E. coli RGN823; experiment: MIC by agar dilution method; assay type: cell-based; settings: Escherichia coli, 37° C., 18 hours
Procedure: as §1

[25] = tested on: Bacillus subtillis ATCC 6633; experiment: MIC by agar dilution method; assay type: cell-based; settings: Bacillus, ATCC6633, 18 h
Procedure: as §1

[26] = tested on: Enterobacter aerogenes E19; experiment: MIC by agar dilution method; assay type: cell-based; settings: Klebsiella aerogenes, 37° C., 18 hours
Procedure: as §1

[27] = tested on: Proteus vulgaris GN76; experiment: Synergistic effect on MIC, microdilution transfer plate technique; assay type: cell-based
[28] = tested on: ddY mice; settings: mouse, in vivo, ip, 500 mg/kg
[29] = OA-6129A 25 combined with CER <5

CC[C@H]1C(=O)N2C(C(=O)O)=C(SCCNC(=O)CCNC(=O)C(O)C(C)(C)CO)C[C@H]12 (relative stereo) [OA-6129A]
hygroscopicity [1]: hygroscopic | MIC ([2]; Citrobacter freundii, GN346, alone, heart infusion broth, 10^5 cells/ml): 50 µg/mL | FIC index ([2]; OA-6129A 1.56 combined with ABPC […]): 1.03 | FIC index ([2]; OA-6129A 1.56 combined with CER 1250): 1.03 | FIC index ([2]; OA-6129A 3.13 combined with ABPC 625): 0.63 | FIC index ([2]; OA-6129A 3.13 combined with CER 625): 0.63 | FIC index ([2]; OA-6129A 6.25 combined with ABPC […]): 0.38 | FIC index ([2]; OA-6129A 6.25 combined with CER 313): 0.38 | FIC index ([2]; OA-6129A 12.5 combined with ABPC […]): 0.50 | FIC index ([2]; OA-6129A 12.5 combined with CER 313): 0.50 | FIC index ([2]; OA-6129A 25 combined with ABPC <5): 0.50 | FIC index [2, 29]: 0.50 | half-life ([3]; pH 4, 0.05 M phosphate buffer): 1.05 h | half-life ([3]; pH 5, 0.05 M phosphate buffer): 4.07 h | half-life ([3]; pH 6, 0.05 M phosphate buffer): 21.2 h | half-life ([3]; pH 7, 0.05 M phosphate buffer): 57.7 h | half-life ([3]; pH 8, 0.05 M phosphate buffer): 128 h | half-life ([3]; pH 9, 0.05 M phosphate buffer): 132 h | MIC [4]: 50 µg/mL (≈ 109 µM) | MIC [5]: 25 µg/mL (≈ 54.6 µM) | MIC [6]: 0.78 µg/mL (≈ 1.7 µM) | MIC [7]: 0.78 µg/mL (≈ 1.7 µM) | MIC [8]: 50 µg/mL (≈ 109 µM) | MIC [9]: 100 µg/mL (≈ 219 µM) | MIC [10]: 0.78 µg/mL (≈ 1.7 µM) | MIC [11]: 50 µg/mL (≈ 109 µM) | MIC [12]: 1.56 µg/mL (≈ 3.41 µM) | MIC [13]: 0.05 µg/mL (≈ 0.109 µM) | MIC [14]: > 100 µg/mL | MIC [15]: > 100 µg/mL | MIC [16]: 100 µg/mL (≈ 219 µM) | MIC [17]: 12.5 µg/mL (≈ 27.3 µM) | MIC [18]: 100 µg/mL (≈ 219 µM) | MIC [19]: 1.56 µg/mL (≈ 3.41 µM) | MIC [20]: 12.5 µg/mL (≈ 27.3 µM) | MIC [21]: 50 µg/mL (≈ 109 µM) | MIC [22]: 12.5 µg/mL (≈ 27.3 µM) | MIC [23]: 1.56 µg/mL (≈ 3.41 µM) | MIC [24]: 12.5 µg/mL (≈ 27.3 µM) | MIC [25]: 0.39 µg/mL (≈ 0.852 µM) | MIC [26]: 25 µg/mL (≈ 54.6 µM) | FIC index ([27]; OA-6129A 1.56 combined with ABPC (printed 3.3)): 0.28 | FIC index ([27]; OA-6129A 1.56 combined with CER 313): 0.28 | FIC index ([27]; OA-6129A 3.13 combined with ABPC 156): 0.19 | FIC index ([27]; OA-6129A 3.13 combined with CER 156): 0.19 | FIC index ([27]; OA-6129A 6.25 combined with ABPC 39): 0.16 | FIC index ([27]; OA-6129A 6.25 combined with CER 39): 0.16 | FIC index ([27]; OA-6129A 12.5 combined with ABPC 10): 0.26 | FIC index ([27]; OA-6129A 12.5 combined with CER 20): 0.27 | FIC index ([27]; OA-6129A 25 combined with ABPC 10): 0.51 | FIC index [27, 29]: 0.50 | MIC ([27]; Proteus vulgaris, GN76, alone, heart infusion broth, 10^5 cells/ml): 50 µg/mL | acute toxicity [28]: no acute toxicity is observed
